Test results reported in ChEMBL document CHEMBL5108030, “Structure activity relationships leading to the identification of the indirect activator of AMPK, R419” (Bioorg Med Chem, 2022).

What was measured:
[1] = target: AMP-activated protein kinase, AMPK; experiment: Activation of AMPK in human HepG2 cells assessed as increase in ACC phosphorylation at Ser79 incubated for 1 hr; format: cell-based
A549 = experiment: Antiproliferative activity against human A549 cells assessed as cell growth inhibition incubated for 48 hrs by DAPI staining assay; format: functional, cell-based; conditions: A549, 48 h
NCI-H1299 = experiment: Antiproliferative activity against human NCI-H1299 cells assessed as cell growth inhibition incubated for 48 hrs by DAPI staining assay; format: functional, cell-based; conditions: NCI-H1299, 48 h
[2] = target: AMP-activated protein kinase, AMPK; experiment: Activation of AMPK in human HepG2 cells assessed as reduction in mitochondrial ATP production incubated for 1 hr; format: cell-based
hERG (KCNH2) = hERG (KCNH2) (Homo sapiens, UniProt Q12809); experiment: Inhibition of human ERG at 3 uM; format: toxicity
[3] = Microsomal stability in human liver microsomes assessed as half life; format: ADME, Microsome
Cytochrome P450 3A4 [4] = target: T1, Cytochrome P450 3A4 (Homo sapiens, UniProt P08684); experiment: Inhibition of CYP3A4 (unknown origin) in presence of NADPH; format: ADME
Cytochrome P450 3A4 [5] = target: T1, Cytochrome P450 3A4; experiment: Inhibition of CYP3A4 (unknown origin); format: ADME

Chain of hERG (KCNH2) (Q12809 whole entry): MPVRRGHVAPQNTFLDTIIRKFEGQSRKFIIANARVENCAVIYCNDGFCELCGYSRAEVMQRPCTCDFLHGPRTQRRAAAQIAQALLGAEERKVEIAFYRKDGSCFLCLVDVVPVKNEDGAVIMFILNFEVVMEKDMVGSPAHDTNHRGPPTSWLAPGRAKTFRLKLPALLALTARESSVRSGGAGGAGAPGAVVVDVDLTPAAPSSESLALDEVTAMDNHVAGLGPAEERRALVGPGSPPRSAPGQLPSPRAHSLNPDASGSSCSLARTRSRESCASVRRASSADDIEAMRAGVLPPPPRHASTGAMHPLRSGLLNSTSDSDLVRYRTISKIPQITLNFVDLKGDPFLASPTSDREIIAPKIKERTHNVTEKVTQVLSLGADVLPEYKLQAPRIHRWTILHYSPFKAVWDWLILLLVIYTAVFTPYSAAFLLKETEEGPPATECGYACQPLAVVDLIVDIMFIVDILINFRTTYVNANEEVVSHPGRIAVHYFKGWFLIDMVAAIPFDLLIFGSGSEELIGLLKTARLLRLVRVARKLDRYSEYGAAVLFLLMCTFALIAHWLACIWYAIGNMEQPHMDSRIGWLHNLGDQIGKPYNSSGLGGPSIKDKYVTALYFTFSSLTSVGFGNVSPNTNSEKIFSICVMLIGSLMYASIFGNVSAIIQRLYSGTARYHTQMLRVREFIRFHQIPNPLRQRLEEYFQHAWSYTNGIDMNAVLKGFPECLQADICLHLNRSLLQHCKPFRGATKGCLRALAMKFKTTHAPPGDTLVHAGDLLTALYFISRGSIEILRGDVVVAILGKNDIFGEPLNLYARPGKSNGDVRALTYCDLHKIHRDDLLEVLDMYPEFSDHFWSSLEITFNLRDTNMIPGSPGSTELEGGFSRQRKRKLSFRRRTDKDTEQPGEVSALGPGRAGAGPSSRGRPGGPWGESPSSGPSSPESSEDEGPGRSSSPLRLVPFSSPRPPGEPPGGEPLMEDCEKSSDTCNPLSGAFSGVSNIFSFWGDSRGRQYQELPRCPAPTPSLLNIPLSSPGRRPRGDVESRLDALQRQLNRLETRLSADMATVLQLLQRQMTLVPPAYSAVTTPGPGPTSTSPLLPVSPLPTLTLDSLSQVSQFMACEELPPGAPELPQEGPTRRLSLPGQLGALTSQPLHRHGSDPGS
T1 sequence (P08684 whole entry): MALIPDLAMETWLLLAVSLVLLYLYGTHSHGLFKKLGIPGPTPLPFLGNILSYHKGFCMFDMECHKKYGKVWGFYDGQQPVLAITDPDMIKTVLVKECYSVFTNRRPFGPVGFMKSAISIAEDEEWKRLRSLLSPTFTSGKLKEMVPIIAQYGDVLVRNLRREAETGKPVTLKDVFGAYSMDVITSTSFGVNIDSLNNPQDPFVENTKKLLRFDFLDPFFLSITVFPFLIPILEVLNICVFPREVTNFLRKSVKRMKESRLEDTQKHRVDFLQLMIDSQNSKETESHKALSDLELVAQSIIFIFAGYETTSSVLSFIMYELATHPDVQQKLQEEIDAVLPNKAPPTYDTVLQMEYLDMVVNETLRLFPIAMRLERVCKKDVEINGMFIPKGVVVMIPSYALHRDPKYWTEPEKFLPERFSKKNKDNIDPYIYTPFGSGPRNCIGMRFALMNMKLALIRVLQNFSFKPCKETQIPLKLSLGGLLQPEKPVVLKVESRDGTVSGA

| SMILES | EC50 [1] [µM] | IC50 (A549) [µM] | IC50 (NCI-H1299) [µM] | IC50 [2] [µM] | also measured |
| --- | --- | --- | --- | --- | --- |
| COc1ccc(C(=O)C2CCN(C(=O)c3ccc(C(=O)NC4CCN(Cc5ccc(N)cc5)CC4)cn3)CC2)cc1 | 1 | 8.99 | 13.8 |  |  |
| O=C(NC1CCN(C(=O)C2CCCCC2)CC1)c1ccc(C(=O)N2CCN(Cc3ccc(F)cc3)CC2)cn1 | 0.3 |  |  |  |  |
| N#Cc1ccc(CN2CCC(NC(=O)c3ccc(C(=O)N4CCC(Cc5ccccc5)CC4)cn3)CC2)cc1 | 0.11 |  |  |  |  |
| CC(C)(C)C(=O)N1CCN(C(=O)c2ccc(C(=O)NC3CCN(Cc4ccc(C#N)cc4)CC3)nc2)CC1 | 0.532 |  |  |  |  |
| CC(c1ccccc1)N1CCC(NC(=O)c2ccc(C(=O)N3CCN(Cc4ccc(F)cc4)CC3)cn2)CC1 (centres undefined) | 0.129 |  |  |  |  |
| O=C(NC1CCN(Cc2ccccc2)CC1)c1ccc(C(=O)NC2CCN(Cc3ccccc3)CC2)nc1 | 10 |  |  |  |  |
| N#Cc1ccc(CN2CCC(NC(=O)c3ccc(C(=O)N4CCC(C(=O)c5ccc(-n6cncn6)cc5)CC4)nc3)CC2)cc1 | 0.437 | 4.82 | 6.31 |  |  |
| N#Cc1ccc(CN2CCC(NC(=O)c3ccc(C(=O)N4CCN(S(=O)(=O)c5ccccc5)CC4)cn3)CC2)cc1 | 0.36 |  |  |  |  |
| N#Cc1ccc(CN2CCC(NC(=O)c3ccc(C(=O)N4CCN(C(=O)c5ccccc5)CC4)cn3)CC2)cc1 | 1.39 |  |  |  |  |
| COc1ccc(CN2CCC(NC(=O)c3ccc(C(=O)N4CCC(C(=O)c5ccc(OC)cc5)CC4)nc3)CC2)cc1 | 0.041 | > 20 | > 20 | 2.31 | inhibition at 3 µM (hERG (KCNH2)): 70% |
| N#Cc1ccc(CC2CCN(C(=O)c3ccc(C(=O)NC4CCN(Cc5ccc(C#N)cc5)CC4)nc3)CC2)cc1 | 0.014 |  |  | 0.033 | half-life [3]: 14 min |
| N#Cc1ccc(CN2CCC(NC(=O)c3ccc(C(=O)N4CCC(C(=O)c5ccc(-n6ccnc6)cc5)CC4)nc3)CC2)cc1 | 0.312 | 15.1 | 15.1 |  |  |
| N#Cc1ccc(CN2CCC(NC(=O)c3ccc(C(=O)N4CCC(F)(C(=O)c5ccc(F)cc5)CC4)cn3)CC2)cc1 | 0.002 |  |  | 0.016 | half-life [3]: 27 min; IC50 (Cytochrome P450 3A4 [4]): > 10 µM; IC50 (Cytochrome P450 3A4 [5]): > 10 µM |
| N#Cc1ccc(CN2CCC(NC(=O)c3ccc(C(=O)N4CCN(S(=O)(=O)c5ccc(F)cc5)CC4)cn3)CC2)cc1 | 0.393 |  |  |  |  |
| O=C(NC1CCN(C(=O)c2ccccc2)CC1)c1ccc(C(=O)N2CCN(Cc3ccc(F)cc3)CC2)cn1 | 0.24 |  |  |  |  |
| COc1ccc(C(=O)C2CCN(C(=O)c3ccc(C(=O)NC4CCN(Cc5ccc(F)cc5)CC4)cn3)CC2)cc1 | 0.027 | > 20 | > 20 | 2.39 | half-life [3]: 71 min; inhibition at 3 µM (hERG (KCNH2)): 64% |
| COc1ccc(S(=O)(=O)N2CCN(C(=O)c3ccc(C(=O)NC4CCN(Cc5ccc(C#N)cc5)CC4)nc3)CC2)cc1 | 0.548 |  |  |  |  |
| CC1(C)CN(C(=O)c2ccc(C(=O)NC3CCN(Cc4ccc(C#N)cc4)CC3)nc2)CCN1Cc1ccc(F)cc1 | 0.001 |  |  |  |  |
| COc1ccc(CN2CCC(NC(=O)c3ccc(C(=O)N4CCC(C(=O)c5ccc(N6CCCC6)cc5)CC4)nc3)CC2)cc1 | 0.057 | 13 | 8.4 | 0.2 |  |
| N#Cc1ccc(CN2CCC(NC(=O)c3ccc(C(=O)N4CCC(Oc5ccc(C#N)cc5)CC4)nc3)CC2)cc1 | 0.092 |  |  | 0.476 |  |
| O=C(NC1CCN(Cc2ccc(OC(F)(F)F)cc2)CC1)c1ccc(C(=O)N2CCC(C(=O)c3ccc(N4CCCC4)cc3)CC2)nc1 | 0.009 | 5.06 | 8.28 | 1.28 |  |
| N#Cc1ccc(C(=O)N2CCC(NC(=O)c3ccc(C(=O)N4CCN(Cc5ccc(F)cc5)CC4)cn3)CC2)cc1 | 0.95 |  |  |  |  |
| COc1ccc(C(=O)C2CCN(C(=O)c3ccc(C(=O)NC4CCN(Cc5ccc(NC(C)=O)cc5)CC4)cn3)CC2)cc1 | 1 | 8.79 | 11 |  |  |
| COc1ccc(C(=O)C2CCN(C(=O)c3ccc(C(=O)NC4CCN(Cc5ccc(C(=O)N(C)C)cc5)CC4)cn3)CC2)cc1 | 1.05 | 13.4 | > 20 |  |  |

| SMILES | EC50 [1] [µM] | IC50 (A549) [µM] | IC50 (NCI-H1299) [µM] | IC50 [2] [µM] | also measured |
| --- | --- | --- | --- | --- | --- |
| N#Cc1ccc(CN2CCC(NC(=O)c3ccc(C(=O)N4CCN(Cc5ccc(F)cc5)C(=O)C4)cn3)CC2)cc1 | 0.466 |  |  |  |  |
| N#Cc1ccc(CN2CCC(NC(=O)c3ccc(C(=O)N4CCC(C(=O)c5ccc(F)cc5F)CC4)nc3)CC2)cc1 | 0.018 |  |  | 1.87 | inhibition at 3 µM (hERG (KCNH2)): 64% |
| N#Cc1ccc(CN2CCC(NC(=O)c3ccc(C(=O)N4CCC(C(O)c5ccc(F)cc5)CC4)cn3)CC2)cc1 (centres undefined) | 0.055 |  |  | 0.619 |  |
| N#Cc1ccc(CN2CCC(NC(=O)c3ccc(C(=O)N4CCC(Oc5ccc(F)cc5F)CC4)cn3)CC2)cc1 | 0.004 |  |  | 0.022 |  |
| O=C(NC1CCN(Cc2ccccc2)CC1)c1ccc(C(=O)N2CCN(Cc3ccccc3)CC2)nc1 | 0.035 |  |  | 1.39 |  |
| CC(C)(c1ccccc1)N1CCC(NC(=O)c2ccc(C(=O)N3CCN(Cc4ccc(F)cc4)CC3)cn2)CC1 | 2.79 |  |  |  |  |
| CC(C)(c1ccc(F)cc1)N1CCN(C(=O)c2ccc(C(=O)NC3CCN(Cc4ccc(C#N)cc4)CC3)nc2)CC1 | 0.006 |  |  |  |  |
| N#Cc1ccc(CN2CCC(NC(=O)c3ccc(C(=O)N4CCC(C(=O)c5ccc(C#N)cc5)CC4)cn3)CC2)cc1 | 0.005 |  |  | 0.794 | inhibition at 3 µM (hERG (KCNH2)): 54% |
| N#Cc1ccc(CN2CCC(NC(=O)c3ccc(C(=O)N4CCC(Oc5ccc(C#N)cc5)CC4)cn3)CC2)cc1 | 0.003 |  |  | 0.125 | half-life [3]: 30 min; IC50 (Cytochrome P450 3A4 [4]): 3.5 µM; inhibition at 3 µM (hERG (KCNH2)): 47% |
| N#Cc1ccc(S(=O)(=O)N2CCC(NC(=O)c3ccc(C(=O)N4CCN(Cc5ccc(F)cc5)CC4)cn3)CC2)cc1 | 0.804 |  |  |  |  |
| O=C(NC1CCN(Cc2ccccc2)CC1)c1ccc(C(=O)N2CCN(Cc3ccccc3)CC2)cn1 | 0.016 |  |  |  |  |
| COc1ccc(C(=O)C2CCN(C(=O)c3ccc(C(=O)NC4CCN(Cc5ccc(S(C)(=O)=O)cc5)CC4)cn3)CC2)cc1 |  | 9.14 | 5.52 |  |  |
| N#Cc1ccc(CN2CCC(NC(=O)c3ccc(C(=O)N4CCC(C(=O)c5ccc(F)cc5)CC4)cn3)CC2)cc1 | 0.002 |  |  | 0.021 |  |
| CS(=O)(=O)c1ccc(C(=O)C2CCN(C(=O)c3ccc(C(=O)NC4CCN(Cc5ccc(F)cc5)CC4)cn3)CC2)cc1 | 2 | 6.27 | 8.7 |  | inhibition at 3 µM (hERG (KCNH2)): 83% |
| COc1ccc(CN2CCC(NC(=O)c3ccc(C(=O)N4CCC(C(=O)c5ccc(S(C)(=O)=O)cc5)CC4)nc3)CC2)cc1 | 1.5 | 7.16 | 8.72 |  |  |
| COc1ccc(C(=O)N2CCN(C(=O)c3ccc(C(=O)NC4CCN(Cc5ccc(C#N)cc5)CC4)nc3)CC2)cc1 | 0.175 |  |  |  |  |
| O=C(c1ccc(C(=O)N2CCN(Cc3ccccc3)CC2)nc1)N1CCN(Cc2ccccc2)CC1 | 10 |  |  |  |  |
| N#Cc1ccc(CN2CCC(NC(=O)c3ccc(C(=O)N4CCC(C(F)c5ccc(F)cc5)CC4)cn3)CC2)cc1 (centres undefined) | 0.006 |  |  | 0.001 | half-life [3]: 8 min; IC50 (Cytochrome P450 3A4 [4]): 9.8 µM |
| N#Cc1ccc(CN2CCC(NC(=O)c3ccc(C(=O)N4CCN(C(=O)c5ccc(F)cc5)CC4)cn3)CC2)cc1 | 0.413 |  |  |  |  |
| CS(=O)(=O)c1ccc(C(=O)C2CCN(C(=O)c3ccc(C(=O)NC4CCN(Cc5ccc(C#N)cc5)CC4)cn3)CC2)cc1 | 2 | 6.72 | 7.19 |  |  |
| N#Cc1ccc(CN2CCC(NC(=O)c3ccc(C(=O)N4CCC(Oc5ccc(F)cc5F)CC4)nc3)CC2)cc1 | 0.013 |  |  | 0.522 | inhibition at 3 µM (hERG (KCNH2)): 36% |
| N#Cc1ccc(CN2CCC(NC(=O)c3ccc(C(=O)N4CCC(C(=O)c5ccc(-n6cccn6)cc5)CC4)nc3)CC2)cc1 | 0.086 | 10.4 | 10.9 |  |  |
| COc1ccc(CC2CCN(C(=O)c3ccc(C(=O)NC4CCN(Cc5ccc(C#N)cc5)CC4)nc3)CC2)cc1 | 0.001 |  |  | 0.007 | half-life [3]: 46 min; IC50 (Cytochrome P450 3A4 [4]): > 10 µM; IC50 (Cytochrome P450 3A4 [5]): 2 µM |
| N#Cc1ccc(CN2CCC(NC(=O)c3ccc(C(=O)N4CCC(C(=O)c5ccc(N6CCCC6)cc5)CC4)nc3)CC2)cc1 | 0.02 | 5.05 | 5.39 | 1.66 |  |
